Experimental data as given in ChEMBL document CHEMBL1921742, “9,10-secosteroids, protein kinase inhibitors from the Chinese gorgonian Astrogorgia sp” (Bioorg Med Chem, 2011).
pIC50: −log10 of the molar value.

Key:
[1] = target: Serine/threonine-protein kinase N1 (Homo sapiens, UniProt Q16512); assay: Inhibition of recombinant human PRK1
[2] = target: Insulin-like growth factor 1 receptor (Homo sapiens, UniProt P08069); assay: Inhibition of recombinant human IGF1-R using poly(Glu,Tyr)4:1 as substrate
[3] = target: Serine/threonine-protein kinase pim-1 (Homo sapiens, UniProt P11309); assay: Inhibition of recombinant human PIM1
Chain of Serine/threonine-protein kinase pim-1 (P11309 whole entry): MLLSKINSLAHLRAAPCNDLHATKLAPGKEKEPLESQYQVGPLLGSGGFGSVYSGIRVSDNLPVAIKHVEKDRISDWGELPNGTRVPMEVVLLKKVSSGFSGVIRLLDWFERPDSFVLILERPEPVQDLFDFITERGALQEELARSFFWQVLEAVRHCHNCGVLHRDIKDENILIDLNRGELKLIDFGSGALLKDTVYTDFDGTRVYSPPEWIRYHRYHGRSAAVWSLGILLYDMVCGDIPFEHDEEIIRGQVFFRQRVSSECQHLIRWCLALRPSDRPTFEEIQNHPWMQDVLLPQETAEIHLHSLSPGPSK

[4] = target: Serine/threonine-protein kinase PLK1 (Homo sapiens, UniProt P53350); assay: Inhibition of recombinant human PLK1 using casein as substrate
[5] = target: T1, NUAK family SNF1-like kinase 1 (Homo sapiens, UniProt O60285); assay: Inhibition of recombinant human ARK5
T1 sequence (O60285 whole entry): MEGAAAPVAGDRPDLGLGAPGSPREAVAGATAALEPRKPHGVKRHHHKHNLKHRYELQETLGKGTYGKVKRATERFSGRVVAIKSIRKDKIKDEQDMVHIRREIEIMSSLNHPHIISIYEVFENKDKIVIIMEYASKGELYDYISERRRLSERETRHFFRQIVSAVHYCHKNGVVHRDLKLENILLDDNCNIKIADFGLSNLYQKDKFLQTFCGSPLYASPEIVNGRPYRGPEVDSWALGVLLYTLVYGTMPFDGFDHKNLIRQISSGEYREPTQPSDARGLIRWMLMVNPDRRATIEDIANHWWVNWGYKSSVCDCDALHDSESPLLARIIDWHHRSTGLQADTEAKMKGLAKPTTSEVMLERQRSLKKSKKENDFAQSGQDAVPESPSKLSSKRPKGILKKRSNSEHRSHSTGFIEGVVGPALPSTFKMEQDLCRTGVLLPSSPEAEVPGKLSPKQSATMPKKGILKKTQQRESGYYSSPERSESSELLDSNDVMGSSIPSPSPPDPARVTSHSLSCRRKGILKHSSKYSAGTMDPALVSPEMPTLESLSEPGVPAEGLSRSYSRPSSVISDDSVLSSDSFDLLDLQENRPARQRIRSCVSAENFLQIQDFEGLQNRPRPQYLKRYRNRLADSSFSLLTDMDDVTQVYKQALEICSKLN

[6] = target: Serine/threonine-protein kinase Nek6 (Homo sapiens, UniProt Q9HC98); assay: Inhibition of recombinant human NEK6
Chain of Serine/threonine-protein kinase Nek6 (Q9HC98 whole entry): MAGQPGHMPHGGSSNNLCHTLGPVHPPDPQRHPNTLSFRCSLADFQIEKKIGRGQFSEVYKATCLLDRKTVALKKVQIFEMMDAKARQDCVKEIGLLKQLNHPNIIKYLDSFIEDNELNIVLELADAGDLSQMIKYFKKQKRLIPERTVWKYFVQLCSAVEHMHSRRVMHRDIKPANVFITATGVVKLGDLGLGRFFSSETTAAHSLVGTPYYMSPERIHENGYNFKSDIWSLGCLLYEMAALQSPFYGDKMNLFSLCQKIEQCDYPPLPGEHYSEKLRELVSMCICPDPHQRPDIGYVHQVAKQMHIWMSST

[7] = target: T2, Tyrosine-protein kinase receptor UFO (Homo sapiens, UniProt P30530); assay: Inhibition of recombinant human AXL
T2 sequence (P30530 whole entry): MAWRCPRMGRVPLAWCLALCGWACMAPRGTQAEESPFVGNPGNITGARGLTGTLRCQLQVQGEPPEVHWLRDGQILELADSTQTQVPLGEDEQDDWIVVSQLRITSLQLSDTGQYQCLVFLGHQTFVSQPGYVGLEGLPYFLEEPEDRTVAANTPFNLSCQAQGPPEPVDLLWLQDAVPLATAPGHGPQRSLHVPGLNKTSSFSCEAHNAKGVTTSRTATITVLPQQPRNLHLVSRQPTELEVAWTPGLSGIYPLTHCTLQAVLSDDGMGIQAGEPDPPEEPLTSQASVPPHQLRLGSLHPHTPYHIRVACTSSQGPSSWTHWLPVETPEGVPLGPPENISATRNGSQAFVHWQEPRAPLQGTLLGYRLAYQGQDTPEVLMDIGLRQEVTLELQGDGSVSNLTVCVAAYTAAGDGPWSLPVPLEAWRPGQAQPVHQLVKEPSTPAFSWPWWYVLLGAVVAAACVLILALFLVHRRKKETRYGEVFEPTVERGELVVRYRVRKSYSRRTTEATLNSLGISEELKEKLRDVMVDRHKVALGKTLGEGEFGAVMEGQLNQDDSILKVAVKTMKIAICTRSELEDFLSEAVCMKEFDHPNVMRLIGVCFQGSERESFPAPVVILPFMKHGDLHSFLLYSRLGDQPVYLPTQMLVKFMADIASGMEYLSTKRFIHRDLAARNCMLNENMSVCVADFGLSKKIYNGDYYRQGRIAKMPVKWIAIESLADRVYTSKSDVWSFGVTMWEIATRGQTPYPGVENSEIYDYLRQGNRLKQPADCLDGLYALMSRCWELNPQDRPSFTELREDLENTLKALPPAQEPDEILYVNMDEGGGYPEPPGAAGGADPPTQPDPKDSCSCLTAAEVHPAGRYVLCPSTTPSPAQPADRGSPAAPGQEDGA

Focal adhesion kinase 1 = Focal adhesion kinase 1 (Homo sapiens, UniProt Q05397); assay: Inhibition of recombinant human FAK using poly(Glu,Tyr)4:1 as substrate
[8] = target: Vascular endothelial growth factor receptor 2 (Homo sapiens, UniProt P35968); assay: Inhibition of recombinant human VEGF-R2 using poly(Glu,Tyr)4:1 as substrate
Chain of Vascular endothelial growth factor receptor 2 (P35968 whole entry): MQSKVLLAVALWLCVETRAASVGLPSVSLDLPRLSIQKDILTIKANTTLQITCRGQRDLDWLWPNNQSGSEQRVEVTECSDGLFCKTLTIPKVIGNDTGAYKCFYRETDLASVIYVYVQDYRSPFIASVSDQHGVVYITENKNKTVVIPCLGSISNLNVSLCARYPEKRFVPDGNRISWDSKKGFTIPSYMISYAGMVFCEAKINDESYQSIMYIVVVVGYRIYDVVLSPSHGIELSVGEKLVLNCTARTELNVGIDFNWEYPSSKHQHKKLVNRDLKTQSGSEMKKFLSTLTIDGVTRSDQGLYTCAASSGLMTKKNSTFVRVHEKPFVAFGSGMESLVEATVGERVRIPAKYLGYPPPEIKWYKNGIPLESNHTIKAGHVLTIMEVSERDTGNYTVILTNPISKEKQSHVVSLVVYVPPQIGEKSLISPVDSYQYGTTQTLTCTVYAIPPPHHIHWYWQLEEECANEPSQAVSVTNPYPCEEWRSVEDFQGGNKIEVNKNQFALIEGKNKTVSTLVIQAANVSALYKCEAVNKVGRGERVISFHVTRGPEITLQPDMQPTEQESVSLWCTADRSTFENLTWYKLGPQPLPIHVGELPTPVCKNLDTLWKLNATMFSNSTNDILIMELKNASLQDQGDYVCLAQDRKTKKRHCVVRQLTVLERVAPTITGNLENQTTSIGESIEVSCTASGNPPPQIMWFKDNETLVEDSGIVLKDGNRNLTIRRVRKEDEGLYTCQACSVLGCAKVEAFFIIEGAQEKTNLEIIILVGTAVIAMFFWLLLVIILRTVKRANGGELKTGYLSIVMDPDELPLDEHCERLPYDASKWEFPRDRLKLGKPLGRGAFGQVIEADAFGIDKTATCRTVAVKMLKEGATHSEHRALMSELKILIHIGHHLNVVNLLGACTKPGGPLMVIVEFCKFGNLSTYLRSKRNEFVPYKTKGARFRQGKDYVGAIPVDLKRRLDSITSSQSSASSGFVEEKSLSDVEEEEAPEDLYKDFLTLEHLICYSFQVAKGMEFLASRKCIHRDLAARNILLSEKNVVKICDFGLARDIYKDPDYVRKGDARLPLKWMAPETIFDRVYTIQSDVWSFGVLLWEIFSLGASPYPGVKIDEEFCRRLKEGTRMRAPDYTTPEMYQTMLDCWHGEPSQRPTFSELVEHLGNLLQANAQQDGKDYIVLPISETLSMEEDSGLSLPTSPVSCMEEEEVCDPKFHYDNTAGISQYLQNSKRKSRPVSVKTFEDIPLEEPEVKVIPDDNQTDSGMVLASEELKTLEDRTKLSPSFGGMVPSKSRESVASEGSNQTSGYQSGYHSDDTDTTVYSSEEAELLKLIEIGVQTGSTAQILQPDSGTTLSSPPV

[9] = target: Dual specificity mitogen-activated protein kinase kinase 1 (Homo sapiens, UniProt Q02750); assay: Inhibition of wild type human MEK1
Chain of Dual specificity mitogen-activated protein kinase kinase 1 (Q02750 whole entry, the tested form may be a part): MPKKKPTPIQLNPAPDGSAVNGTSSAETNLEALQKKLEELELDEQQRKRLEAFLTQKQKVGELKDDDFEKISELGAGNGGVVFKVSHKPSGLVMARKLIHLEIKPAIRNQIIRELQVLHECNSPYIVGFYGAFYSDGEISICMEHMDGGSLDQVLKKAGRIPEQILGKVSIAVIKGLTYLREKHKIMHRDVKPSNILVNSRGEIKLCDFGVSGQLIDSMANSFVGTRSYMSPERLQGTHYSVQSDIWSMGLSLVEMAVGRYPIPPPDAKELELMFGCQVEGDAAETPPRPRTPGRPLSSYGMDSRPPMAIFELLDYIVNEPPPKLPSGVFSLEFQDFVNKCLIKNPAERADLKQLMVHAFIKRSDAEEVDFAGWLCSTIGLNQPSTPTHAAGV

[10] = target: RAC-alpha serine/threonine-protein kinase (Homo sapiens, UniProt P31749); assay: Inhibition of recombinant human AKT1 using GSK3 (amino acids 14 to 27) as substrate
Chain of RAC-alpha serine/threonine-protein kinase (P31749 whole entry, the tested form may be a part): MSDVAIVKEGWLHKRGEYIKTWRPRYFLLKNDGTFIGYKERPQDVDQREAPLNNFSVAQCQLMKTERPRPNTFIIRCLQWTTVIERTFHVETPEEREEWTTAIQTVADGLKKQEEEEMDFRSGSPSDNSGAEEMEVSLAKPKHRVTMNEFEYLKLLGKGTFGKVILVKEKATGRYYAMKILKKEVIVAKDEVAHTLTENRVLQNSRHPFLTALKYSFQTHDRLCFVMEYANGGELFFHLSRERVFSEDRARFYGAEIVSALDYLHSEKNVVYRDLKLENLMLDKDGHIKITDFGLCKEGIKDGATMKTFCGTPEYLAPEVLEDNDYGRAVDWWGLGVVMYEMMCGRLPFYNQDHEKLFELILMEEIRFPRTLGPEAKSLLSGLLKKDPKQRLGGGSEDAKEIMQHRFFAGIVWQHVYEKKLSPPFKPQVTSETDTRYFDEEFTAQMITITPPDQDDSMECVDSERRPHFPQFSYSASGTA

[11] = target: ALK tyrosine kinase receptor (Homo sapiens, UniProt Q9UM73); assay: Inhibition of recombinant human ALK
[12] = target: Hepatocyte growth factor receptor (Homo sapiens, UniProt P08581); assay: Inhibition of wild type human MET using poly(Ala,Glu,Lys,Tyr) as substrate
Chain of Hepatocyte growth factor receptor (P08581 whole entry): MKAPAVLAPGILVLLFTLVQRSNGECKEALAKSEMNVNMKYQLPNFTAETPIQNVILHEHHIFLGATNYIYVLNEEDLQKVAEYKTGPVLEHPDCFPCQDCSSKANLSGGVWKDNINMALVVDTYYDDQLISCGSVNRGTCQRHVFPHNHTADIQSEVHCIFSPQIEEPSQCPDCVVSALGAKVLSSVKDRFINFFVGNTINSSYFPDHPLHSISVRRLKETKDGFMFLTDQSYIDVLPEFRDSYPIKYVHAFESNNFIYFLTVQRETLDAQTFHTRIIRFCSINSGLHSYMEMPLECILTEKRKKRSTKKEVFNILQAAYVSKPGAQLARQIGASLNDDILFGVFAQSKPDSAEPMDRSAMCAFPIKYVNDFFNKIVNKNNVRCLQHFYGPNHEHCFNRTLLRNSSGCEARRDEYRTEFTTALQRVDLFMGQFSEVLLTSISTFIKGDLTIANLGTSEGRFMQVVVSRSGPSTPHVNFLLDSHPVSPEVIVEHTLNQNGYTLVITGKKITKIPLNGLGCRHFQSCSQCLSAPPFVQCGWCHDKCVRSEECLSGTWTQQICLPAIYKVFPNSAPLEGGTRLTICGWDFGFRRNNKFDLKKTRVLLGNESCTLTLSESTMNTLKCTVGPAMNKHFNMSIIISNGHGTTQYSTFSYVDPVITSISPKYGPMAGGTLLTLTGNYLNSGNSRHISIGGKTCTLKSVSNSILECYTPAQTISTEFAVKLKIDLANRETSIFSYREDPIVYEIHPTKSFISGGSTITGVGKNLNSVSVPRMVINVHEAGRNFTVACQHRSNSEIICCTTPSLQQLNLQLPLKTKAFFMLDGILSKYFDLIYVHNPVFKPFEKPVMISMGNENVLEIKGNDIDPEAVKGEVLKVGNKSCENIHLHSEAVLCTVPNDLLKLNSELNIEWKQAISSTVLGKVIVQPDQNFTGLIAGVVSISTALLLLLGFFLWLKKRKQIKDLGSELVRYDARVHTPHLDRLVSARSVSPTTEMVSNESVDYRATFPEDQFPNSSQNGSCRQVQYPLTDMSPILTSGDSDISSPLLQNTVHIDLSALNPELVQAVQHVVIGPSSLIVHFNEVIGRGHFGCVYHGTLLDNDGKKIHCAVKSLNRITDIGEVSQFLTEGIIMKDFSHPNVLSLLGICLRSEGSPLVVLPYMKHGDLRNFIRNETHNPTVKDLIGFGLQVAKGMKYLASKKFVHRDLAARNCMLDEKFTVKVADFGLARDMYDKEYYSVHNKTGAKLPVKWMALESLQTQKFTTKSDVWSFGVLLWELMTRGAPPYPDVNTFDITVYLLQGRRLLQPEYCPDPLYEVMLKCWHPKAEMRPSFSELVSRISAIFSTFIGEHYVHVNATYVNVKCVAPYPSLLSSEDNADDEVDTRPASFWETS

Aurora kinase B = Aurora kinase B (Homo sapiens, UniProt Q96GD4); assay: Inhibition of recombinant human Aurora-B using tetra(LRRWLSG) as substrate
Chain of Aurora kinase B (Q96GD4 whole entry): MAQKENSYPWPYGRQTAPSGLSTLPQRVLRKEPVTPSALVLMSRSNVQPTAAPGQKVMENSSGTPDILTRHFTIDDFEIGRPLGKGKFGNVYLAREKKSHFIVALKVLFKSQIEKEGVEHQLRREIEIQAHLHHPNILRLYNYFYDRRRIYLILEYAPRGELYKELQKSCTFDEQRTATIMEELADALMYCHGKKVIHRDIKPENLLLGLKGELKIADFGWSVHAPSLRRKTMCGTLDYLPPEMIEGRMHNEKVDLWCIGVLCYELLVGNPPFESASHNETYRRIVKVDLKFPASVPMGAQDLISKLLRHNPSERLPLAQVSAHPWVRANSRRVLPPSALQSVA

[13] = target: T3, Serine/threonine-protein kinase Nek2 (Homo sapiens, UniProt P51955); assay: Inhibition of recombinant human NEK2
T3 sequence (P51955 whole entry): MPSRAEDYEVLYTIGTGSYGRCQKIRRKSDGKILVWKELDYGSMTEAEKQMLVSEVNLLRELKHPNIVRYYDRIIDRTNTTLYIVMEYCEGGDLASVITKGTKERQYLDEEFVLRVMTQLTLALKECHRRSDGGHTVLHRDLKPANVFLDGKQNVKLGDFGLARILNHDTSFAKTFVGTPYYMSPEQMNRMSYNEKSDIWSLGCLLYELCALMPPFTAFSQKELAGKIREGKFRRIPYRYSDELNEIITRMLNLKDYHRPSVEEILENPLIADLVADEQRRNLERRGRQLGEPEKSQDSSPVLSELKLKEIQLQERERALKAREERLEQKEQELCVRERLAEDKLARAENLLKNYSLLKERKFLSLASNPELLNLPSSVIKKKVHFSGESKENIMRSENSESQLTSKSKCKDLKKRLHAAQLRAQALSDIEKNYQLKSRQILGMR

[14] = target: Proto-oncogene tyrosine-protein kinase Src (Homo sapiens, UniProt P12931); assay: Inhibition of recombinant human SRC using poly(Glu,Tyr)4:1 as substrate

Row | pIC50 [1] | pIC50 [2] | pIC50 [3] | pIC50 [4] | pIC50 [5] | pIC50 [6] | pIC50 [7] | pIC50 (Focal adhesion kinase 1) | pIC50 [8] | pIC50 [9] | pIC50 [10] | pIC50 [11] | pIC50 [12] | pIC50 (Aurora kinase B) | pIC50 [13] | pIC50 [14] | SMILES
1 | < 4.00 | 5.50 | < 4.00 | < 4.00 | < 4.00 | < 4.00 | 4.66 | 4.77 | 5.31 | < 4.00 | < 4.00 | 5.03 | – | 4.42 | < 4.00 | 5.62 | Cc1ccc(O)cc1CC[C@@H]1[C@@H](O)CC[C@]2(C)[C@@H]([C@H](C)/C=C/CC(C)C)CC[C@@H]12 (relative stereo)
2 | < 4.00 | 5.56 | < 4.00 | < 4.00 | < 4.00 | < 4.00 | 4.77 | 4.88 | 5.36 | 4.31 | < 4.00 | 5.12 | 4.11 | 4.60 | < 4.00 | 5.72 | Cc1ccc(O)cc1CC[C@@H]1[C@H](O)CC[C@]2(C)[C@@H]([C@H](C)CCCC(C)C)CC[C@@H]12 [ASTROGORGIADIOL]
3 | < 4.00 | < 4.00 | < 4.00 | < 4.00 | < 4.00 | < 4.00 | < 4.00 | < 4.00 | < 4.00 | < 4.00 | < 4.00 | < 4.00 | < 4.00 | < 4.00 | < 4.00 | < 4.00 | Cc1ccc(O)cc1CC[C@@H]1[C@H](O)CC[C@]2(C)[C@@H]([C@H](C)CCCC(C)C)[C@@H](O)C[C@@H]12 [CALICOFEROL B]
4 | < 4.00 | < 4.00 | < 4.00 | < 4.00 | < 4.00 | < 4.00 | < 4.00 | < 4.00 | < 4.00 | < 4.00 | < 4.00 | < 4.00 | < 4.00 | < 4.00 | < 4.00 | < 4.00 | C=C(CC[C@@H](C)[C@H]1CC[C@H]2[C@H](CCc3cc(O)ccc3C)[C@H](O)CC[C@]12C)C(C)C [CALICOFEROL C]

Further lines, the compound ahead of its results:

Row | SMILES | pIC50 [1] | pIC50 [2] | pIC50 [3] | pIC50 [4] | pIC50 [5] | pIC50 [6] | pIC50 [7] | pIC50 (Focal adhesion kinase 1) | pIC50 [8] | pIC50 [9] | pIC50 [10] | pIC50 [11] | pIC50 [12] | pIC50 (Aurora kinase B) | pIC50 [13] | pIC50 [14]
5 | C=C(CC[C@@H](C)[C@H]1CC[C@H]2[C@H](CCc3cc(O)ccc3C)C(=O)CC[C@]12C)C(C)C | < 4.00 | 5.64 | < 4.00 | 4.00 | < 4.00 | < 4.00 | 4.69 | 4.97 | 5.31 | < 4.00 | < 4.00 | 5.36 | 4.56 | < 4.00 | < 4.00 | 5.83
6 | Cc1ccc(O)cc1CC[C@@H]1C(=O)CC[C@]2(C)[C@@H]([C@H](C)/C=C/CC(C)C)CC[C@@H]12 [CALICOFEROL A] | < 4.00 | 5.62 | < 4.00 | < 4.00 | < 4.00 | < 4.00 | 4.83 | 5.00 | 5.34 | < 4.00 | < 4.00 | 5.38 | 4.32 | < 4.00 | < 4.00 | 5.65
7 | Cc1ccc(O)cc1CC[C@@H]1C(=O)CC[C@]2(C)[C@@H]([C@H](C)CCCC(C)C)CC[C@@H]12 [CALICOFEROL E] | < 4.00 | 5.61 | < 4.00 | < 4.00 | < 4.00 | < 4.00 | 4.49 | 5.02 | 5.22 | < 4.00 | < 4.00 | 5.33 | – | < 4.00 | < 4.00 | 5.66
8 | Cc1ccc(O)cc1CC[C@@H]1C(=O)CC[C@]2(C)[C@@H]([C@H](C)CCCC(C)C)[C@@H](O)C[C@@H]12 [CALICOFEROL I] | < 4.00 | < 4.00 | < 4.00 | < 4.00 | < 4.00 | < 4.00 | < 4.00 | < 4.00 | < 4.00 | < 4.00 | < 4.00 | < 4.00 | < 4.00 | < 4.00 | < 4.00 | < 4.00
